Laboratory results published in US8232297B2, “Sulphonylpyrroles as inhibitors of HDACs novel sulphonylpyrroles” (4SC AG, priority 2005, dated 2012).
One block for each compound: values may come before it.

Experiments:
A549 cell line = experiment: Combination experiment with Trail; assay type: cell-based; conditions: example at about its IC50 with Trail, 4 h pretreatment, 72 h total
Protocol: A549 non-small cell lung cancer, MDA-MB468 breast cancer and […] colorectal cancer cell lines were pretreated with the examples for 4 h before adding the chemotherapeutic agents or Trail and further incubation for 72 h total. The IC50 values of these combinations were determined from concentration-effect curves and compared to IC50 values of cell treated with the anti-cancer agent only.

[1] = tested on: RKO proliferating colon carcinoma cells; experiment: Cell-cycle dependent cytotoxicity, RKO exop21 system, proliferating; assay type: cell-based; conditions: 72 h, given only as range over the listed compounds
Protocol: (§1) For determination of cell-cycle dependent cytotoxicity, the RKO exop21 cell system was applied (Schmidt et al. Oncogene 19: 2423-2429, 2000). Briefly, RKO cells with/without p21^waf1 expression (2×10^4 cells/well induced, 6×10^3 cells/well not induced) were treated with the examples for 72 h and metabolic activity quantified as described before. The expression of p21^waf1 was induced by treatment with Pronasterone A, causing a complete proliferation arrest of RKO cells in the G1 and G2 phases of the cell division cycle.

[2] = tested on: RKO arrested (p21waf1 expressed) colon carcinoma cells; experiment: Cell-cycle dependent cytotoxicity, RKO exop21 system, arrested; assay type: cell-based; conditions: 72 h, p21waf1 induced, given only as range over the listed compounds
Protocol: as §1

[3] = tested on: HeLa cervical carcinoma cells; experiment: Cellular cytotoxicity assay (Alamar Blue), HeLa; assay type: cell-based; conditions: Homo sapiens, 72 h, printed only as range over the group of listed compounds
Protocol: The anti-proliferative activity of the histone deacetylase inhibitory compounds as described herein, was evaluated using the following cell lines: HeLa and HeLa-KB (cervical carcinoma), H460 (non small cell lung cancer), A549 (non-small cell lung cancer), MCF7 (breast carcinoma), MCF10A (normal, non tumorigenic breast epithelial), MDA-MB468 (breast carcinoma), MDA-MB435 (breast carcinoma), MDA-MB231 (breast carcinoma), SKBR-3 (breast carcinoma), SKOV-3 (ovarial carcinoma), A-2780 (ovarial carcinoma), RKO (colon carcinoma), HCT-15 (colon carcinoma), HCT-116 (colon carcinoma), PC3 (prostate carcinoma), BPH1 (benign prostate hyperplasia), AsPC1 (pancreatic carcinoma), Cal27 (tongue carcinoma), A-431 (vulva carcinoma), Hec1A (endometrial carcinoma), Saos-2 (osteosarcoma), U87MG (glioblastoma), WM266-4 (melanoma), K562 (chronic myeloid carcinoma), EOL1 (acute hypereosinophilic myeloid leukemia), CCRF-CEM and CCRF-CEM VCR1000 (acute lymphoblastic leukemia sensitive and resistant towards Vincristine). For quantification of cellular proliferation/living cells the Alamar Blue (Resazurin) cell viability assay was applied (O'Brien et al. Eur J Biochem 267, 5421-5426, 2000). […] After 4 hours incubation at 37° C. the fluorescence was measured at an extinction of 544 nm and an emission of 590 nm. […] Viabilities were expressed as % values. […]

melting point: 219.3 to 221.4 °C
Compound: O=C(/C=C/c1ccn(S(=O)(=O)c2ccc(-c3ccncc3)cc2)c1)NO [Compound 18, (E)-N-Hydroxy-3-[1-(4-pyridin-4-yl-benzenesulfonyl)-1H-pyrrol-3-yl]-acrylamide]

melting point: 114 to 159.4 °C
Compound: O=C(/C=C/c1ccn(S(=O)(=O)c2cccc(-c3ccccc3)c2)c1)NO [Compound 23, (E)-3-[1-(Biphenyl-3-sulfonyl)-1H-pyrrol-3-yl]-N-hydroxy-acrylamide]

Compound: O=C(/C=C/c1ccn(S(=O)(=O)c2ccc(-c3ccccc3)cc2)c1)NO [Compound 3, (E)-3-[1-(Biphenyl-4-sulfonyl)-1H-pyrrol-3-yl]-N-hydroxy-acrylamide]
Effect of combination with Trail (A549 cell line): synergism is highly likely
IC50 [1]: 150 to 5100 nM
IC50 [2]: 450 to 15000 nM

melting point: 199.7 to 202.3 °C
Compound: Nc1ccccc1NC(=O)/C=C/c1ccn(S(=O)(=O)c2ccc(-c3cccnc3)cc2)c1 [Compound 21, (E)-N-(2-Amino-phenyl)-3-[1-(4-pyridin-3-yl-benzenesulfonyl)-1H-pyrrol-3-yl]-acrylamide]

melting point: 203.8 to 211.9 °C
Compound: O=C(/C=C/c1ccn(S(=O)(=O)c2ccc(-c3cn[nH]c3)cc2)c1)NO [Compound 19, (E)-N-Hydroxy-3-{1-[4-(1H-pyrazol-4-yl)-benzenesulfonyl]-1H-pyrrol-3-yl}-acrylamide]

Compound: CN(CCc1cc2ccccc2[nH]1)Cc1ccc(S(=O)(=O)n2ccc(/C=C/C(=O)NO)c2)cc1 [Compound 9, (E)-N-Hydroxy-3-(1-[4-(([2-(1H-indol-2-yl)-ethyl]-methyl-amino)-methyl)-benzenesulfonyl]-1H-pyrrol-3-yl)-acrylamide]
Effect of combination with Trail (A549 cell line): synergism is highly likely
IC50 [1]: 150 to 5100 nM
IC50 [2]: 450 to 15000 nM

melting point: 244.2 to 246.5 °C
Compound: Nc1ccccc1NC(=O)/C=C/c1ccn(S(=O)(=O)c2ccc(-c3ccncc3)cc2)c1 [Compound 20, (E)-N-(2-Amino-phenyl)-3-[1-(4-pyridin-4-yl-benzenesulfonyl)-1H-pyrrol-3-yl]-acrylamide]

Compound: O=C(/C=C/c1ccn(S(=O)(=O)c2ccc(-c3ccccn3)s2)c1)NO [Compound 24, (E)-N-Hydroxy-3-[1-(5-pyridin-2-yl-thiophene-2-sulfonyl)-1H-pyrrol-3-yl]-acrylamide]
Effect of combination with Trail (A549 cell line): synergism is highly likely
IC50 [1]: 150 to 5100 nM
IC50 [2]: 450 to 15000 nM

melting point: 227 to 228.6 °C
Compound: NCc1ccc(S(=O)(=O)n2ccc(/C=C/C(=O)NO)c2)cc1 [Compound 17, (E)-3-[1-(4-Aminomethyl-benzenesulfonyl)-1H-pyrrol-3-yl]-N-hydroxy-acrylamide]

melting point: 232.3 to 240.9 °C
Compound: Nc1ccccc1NC(=O)/C=C/c1ccn(S(=O)(=O)c2ccc(-c3cn[nH]c3)cc2)c1 [Compound 22, (E)-N-(2-Amino-phenyl)-3-{1-[4-(1H-pyrazol-4-yl)-benzenesulfonyl]-1H-pyrrol-3-yl}-acrylamide]

Compound: Cc1ccc(S(=O)(=O)n2ccc(C=CC(=O)NO)c2)cc1 [Compound 1, (E)-N-Hydroxy-3-[1-(toluene-4-sulfonyl)-1-H-pyrrol-3-yl]-acrylamide]
IC50 [3]: 800 to 21600 nM

melting point: 171.3 to 174.7 °C
Compound: Nc1ccccc1NC(=O)/C=C/c1ccn(S(=O)(=O)c2ccc(-c3ccccn3)s2)c1 [Compound 26, (E)-N-(2-Amino-phenyl)-3-[1-(5-pyridin-2-yl-thiophene-2-sulfonyl)-1H-pyrrol-3-yl]-acrylamide]

Compound: CN(C)Cc1ccc(S(=O)(=O)n2ccc(/C=C/C(=O)NO)c2)cc1 [Compound 10, (E)-3-[1-(4-Dimethylaminomethyl-benzenesulfonyl)-1H-pyrrol-3-yl]-N-hydroxy-acrylamide]
Effect of combination with Trail (A549 cell line): synergism is highly likely
IC50 [1]: 150 to 5100 nM
IC50 [2]: 450 to 15000 nM

melting point: 160.7 to 166.6 °C
Compound: O=C(/C=C/c1ccn(S(=O)(=O)c2ccc(-n3cccn3)cc2)c1)NO [Compound 25, (E)-N-Hydroxy-3-[1-(4-pyrazol-1-yl-benzenesulfonyl)-1H-pyrrol-3-yl]-acrylamide]

melting point: 168 to 170 °C
Compound: O=C(/C=C/c1ccn(S(=O)(=O)c2ccc(CN3CCOCC3)cc2)c1)NO [Compound 27, (E)-N-Hydroxy-3-[1-(4-morpholin-4-ylmethyl-benzenesulfonyl)-1H-pyrrol-3-yl]-acrylamide]
